Test results: patent publication US11890315B2, “Stable ascorbic acid compositions and methods of using same” (RENOVION, INC., priority 2017, dated 2024)

Assays:
[1] = tested on: dF508−/− primary human bronchial epithelial cells; test: Mucociliary transport rate, ASL and CBF by micro-optical coherence tomography (uOCT); assay type: cell-based; conditions: isolated components vs PBS control; FIG. 2
Source text: Briefly, primary human bronchial epithelial cells were isolated from the airways of patients with cystic fibrosis and were terminally differentiated. All cells isolated from cystic fibrosis patients were represented by the dF508−/− genotype. […] Micro-optical coherence tomography (uOCT) was used to assess the mucociliary transport rate according to methods described in Liu, L., et al., PLoS One.
As described above in Example 2, primary human bronchial epithelial cells were isolated from the airways of patients with cystic fibrosis, and uOCT was used to assess the mucociliary transport rate according to methods described in Liu, L., et al., PLoS One.
MCT rate was assessed in a mucociliary clearance assay according to the methods in Example 3 above.

[2] = Storage stability about 72 hours at 2-8° C.; assay type: physicochemical; conditions: −20° C., 5° C., ambient; data not shown
Description: The effects of storage on ascorbic acid compositions including varying amounts of buffer with a consistent glutathione concentration were tested. […] At testing, Formulations 1-9 were evaluated to determine ascorbic acid and reduced and oxidized glutathione concentrations. A standard RP-HPLC method for these analytes was used. The method was validated including specificity, accuracy, repeatability, LOQ, mini linearity, in-vial NPLC sample stability and stability-indicating check with informal forced degradation samples. The pH of each formulation was determined using a pH probe place in a sample of each solution. Results are shown in FIG. 15. ascorbic (ACS) alone was unstable under the conditions tested (−20° C., 5° C., ambient) (data not shown).

[3] = Stability: oxidized glutathione and reduced ascorbic acid after 4 weeks of storage at 5° C.; assay type: physicochemical; conditions: reduced ascorbic acid maintained after 4 weeks at 5° C.; pH and atmosphere per formulation
Source text: Oxidized glutathione is associated with the generation of protein-carbonyls via glutathionlyation, which occurs when oxidized glutathione dissociates and attaches to proteins. […] Additionally, when ascorbic acid is oxidized into dehydroascorbate (DHA), DHA can break down and result in the formation of protein adducts in process called ascorbylation (Simpson et al., Biochim biophys Acta 2000; 1501:12-24). […] Specifically, nitrogen-sparged samples were mixed under anaerobic conditions sparged with nitrogen, and the samples were packaged using nitrogen bubbling. Ambient samples were mixed under room air conditions and were not bubbled with nitrogen. The formulations were stored at 5° C. for 4 weeks, and the percent of oxidized glutathione (GSSG) and ascorbic acid (ASC) was measured for each sample according to standard techniques.

[4] = tested on: MRSA UAB-3; test: In vitro MIC against bacterial isolates; assay type: cell-based, Methicillin-resistant Staphylococcus aureus; conditions: Anaerobic (+nitrate); 12 hrs
Description: (§1) The MIC for laboratory clinical isolate Pseudomonas aeruginosa (Schroeter) Migula (ATCC BAA-47 (PAO1)) was also tested. The MICs were determined under anaerobic conditions on media supplemented with nitrate, under aerobic conditions supplemented with nitrate, or under ambient conditions.
(§2) The clinical isolates were inoculated in duplicate on agar plates overnight under anaerobic conditions at 36° C.±1.0° C. in a 96-well plate. Laboratory isolates of Burkholderia cepacia were also grown in duplicate overnight under aerobic conditions at 36° C.±1.0° C. in a 96-well plate. […] Ten dilutions for each test solution were examined: 50%, 25%, 12.5%, 6.25%, 3.13%, 1.57%, 0.78%, 0.39%, 0.2%, and 0.1%. The colony isolates were incubated for 12 hours or 24 hours at 36° C.±1.0° C. under anaerobic conditions in media comprising Luria Agar/Broth and nitrate with one of the three test solutions. […] MICs were determined via visual inspection and OD620.

[5] = tested on: MRSA UAB-1; test: In vitro MIC against bacterial isolates; assay type: cell-based, Methicillin-resistant Staphylococcus aureus; conditions: Anaerobic (+nitrate); 12 hrs
Description: as §1, §2

[6] = tested on: Pa UAB-NM-3; test: In vitro MIC against bacterial isolates; assay type: cell-based, Pseudomonas aeruginosa; conditions: Anaerobic (+nitrate); 12 hrs
Description: as §1, §2

[7] = tested on: Pa UAB-NM-5; test: In vitro MIC against bacterial isolates; assay type: cell-based, Pseudomonas aeruginosa; conditions: Anaerobic (+nitrate); 12 hrs
Description: as §1, §2

[8] = tested on: Pa UAB-NM-1; test: In vitro MIC against bacterial isolates; assay type: cell-based, Pseudomonas aeruginosa; conditions: Anaerobic (+nitrate); 12 hrs
Description: as §1, §2

[9] = tested on: Pa UAB-M-2; test: In vitro MIC against bacterial isolates; assay type: cell-based, Pseudomonas aeruginosa; conditions: Anaerobic (+nitrate); 12 hrs
Description: as §1, §2

[10] = tested on: Pa BAA-47 (PAO1); test: In vitro MIC against bacterial isolates; assay type: cell-based, Pseudomonas aeruginosa; conditions: Anaerobic (+nitrate); 12 hrs
Description: as §1, §2

SMILES	mucociliary transport rate [1]	stability [2]	% ASC [3] [%]	MIC [4] [%]	MIC [5] [%]	MIC [6] [%]	MIC [7] [%]	MIC [8] [%]	MIC [9] [%]	MIC [10] [%]
N[C@@H](CCC(=O)N[C@@H](CS)C(=O)NCC(=O)O)C(=O)O [glutathione, Glutathione]	did not alter the mucociliary transport rate									
O=C1O[C@H]([C@@H](O)CO)C(O)=C1O [Ascorbic Acid Only, ascorbic acid]		unstable	77.88							
O=C([O-])O.[Na+] [HCO3, sodium bicarbonate]	did not alter the mucociliary transport rate			25	25	12.5	12.5	12.5	12.5	12.5
